Values joined by “and” are separate entries in the source; they are usually repeats but may differ in a detail not shown here. Identical values can stand only once.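 Cells were grown in 96-well plates and exposed to each compound for 48 hours at five concentrations; endpoints were interpolated linearly between bracketing concentrations, or set to the highest concentration if not reached. At the GI50, growth is halved. TGI is the concentration that stops growth completely.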 Where a SMILES comes first, the peptide text is derived from it. The star is where a group is joined. Cbz = O=C(OCc1ccccc1)*
Tested on: SF-268 CNS
Assay: NCI anticancer screen, dose series, 48 h

| Compound | TGI | GI50 [µM] |
| --- | --- | --- |
| COc1ccc(CNc2nc(NC3CCCCC3)nc(NC3CCCCC3)n2)cc1 | > 100 µM | – |
| CN(C)CCCNc1ccc2ncn3c4ccc(O)cc4c(=O)c1c23 | 13.5 µM | – |
| S=C1NCCN1C(=S)Nc1ccccc1 | > 100 µM | – |
| CC1CC(Nc2ccc(Br)cc2)N(C(=O)c2ccc(Br)cc2)O1 (stereo unspecified) | > 10 µM | – |
| OC(C/C=N/N=C/CC(O)(C(F)(F)Cl)C(F)(F)Cl)(C(F)(F)Cl)C(F)(F)Cl | > 10 µM | – |
| COc1cc2c(cc1O)NC(=O)[C@@H]1CCCN1C2=O | > 100 µM | – |
| O=C1C=C(Nc2ccc(S(=O)(=O)Nc3nccs3)cc2)c2ccccc2C1=O | > 100 µM | – |
| C=CC1(CC[C@]2(c3ccc(OC)c(OC)c3)C=[N+]([O-])O[C@H](O[C@@H]3CCCC[C@H]3C(C)(C)c3ccccc3)C2)OCC(C)(C)CO1 | 52.1 µM | – |
| Oc1c(Br)ccc2cccnc12 | > 100 µM | – |
| O=c1[nH]c2nc3ccccc3c(=O)n2/c1=C/c1cccs1 | > 100 µM | – |
| CC(=O)SC(C[N+](=O)[O-])c1ccc2c(c1)OCO2 (stereo unspecified) | > 82.5 µM | – |
| Cc1ccc(CSC(N)=Nc2ccccc2)cc1C | 36.7 µM | – |
| C=C1CCCCCCCCC/C=C/1SCCCSC | > 100 µM | – |
| NCCCN(CCCN)CCc1cn(C(=O)c2ccccc2)cn1 | 24.2 µM | – |
| Cc1[nH]n(-c2nc(O)c(-c3ccccc3)c(=O)[nH]2)c(=O)c1CCO | > 100 µM | – |
| CC(NC(=O)Cc1ccccc1)NC(=O)C(C)C(=O)NCc1ccccc1 (stereo unspecified) | > 100 µM | – |
| CCOC(=O)CCC(NC(=O)C(Cc1ccccc1)NC(=O)OCc1ccccc1)C(=O)OCC (stereo not drawn) (Cbz-Phe-Glu(OEt)-OEt; configuration not given here) | 34.5 µM | – |
| O=C1C(Br)=CC2(C=C1Br)CCNC1=C2C(=O)c2ncccc2C1=O | 4.99 µM | – |
| CC(=O)OCC1OC(n2c(C)c(N=Nc3ccc(Cl)cc3)c(C)c(C#N)c2=S)C(OC(C)=O)C(OC(C)=O)C1OC(C)=O (stereo unspecified) | > 100 µM | – |

| Compound | TGI | GI50 [µM] |
| --- | --- | --- |
| CCCCC1Cc2cc(O)ccc2-c2nc3cc(O)ccc3n21 (stereo unspecified) (tested in a mixture with another compound) | 33.3 µM | – |
| CC(NC(=O)c1c(O)[nH]c(=S)[nH]c1=O)c1ccc([N+](=O)[O-])cc1 (stereo unspecified) | > 100 µM | – |
| CC(=O)c1c(N=[N+]=[N-])c2cccc3c2n(c1=O)CCC3 | 38.6 µM | – |
| Cn1nnnc1SC(F)(F)c1nc2ccccc2o1 | > 100 µM | – |
| CCCCCCCCCCCC(=O)OC[C@@H](C[As](=O)(O)O)OC(=O)CCCCCCCCCCC | > 32.2 µM | – |
| C/C=C\C(CC(=O)NCC(=O)c1c[nH]c2ccccc12)CC(=O)OC (stereo unspecified) | > 100 µM | – |
| CC(=O)c1ccc2c(c1)C(=O)c1sc(C(C)=O)cc1C2=O | 3.85 µM and 3.41 µM | 0.819 |
| O=[N+]([O-])c1c(F)c(F)c2c(c1F)N(CCCCCl)c1ccccc1S2 | 18.3 µM | – |
| Cc1ccnc2c1C(=O)C1=C(OC(C)(C)CC1O)C2=O (stereo unspecified) | 17.5 µM | – |
| CN1CCc2c(sc3[nH]c(=S)[nH]c(=S)c23)C1 | > 100 µM | – |
| CCOC(=O)c1c(OCC)[nH]c(=O)c(C(c2cccs2)c2c(O)c(C(=O)OCC)c(OCC)[nH]c2=O)c1O | 35 µM | – |
| CC(=O)Nc1c(C(=N)C#N)ncn1CCO | > 100 µM | – |
| O=P1(Cc2ccccc2)N(Cc2ccccc2)[C@@H]2CCCC[C@H]2N1Cc1ccccc1 | 24.3 µM | – |
| CN1CCCOC(c2ccc(Cl)cc2)O1 (stereo unspecified) | > 100 µM | – |
| Cc1c2ccc3ccccc3c2c[n+]2ccccc12 | 6.92 µM | – |
| O=C1/C(=C\c2cccc(Oc3ccccc3)c2)S(=O)(=O)C(c2ccccc2)N1c1cccc(Cl)c1 (stereo unspecified) | > 100 µM | – |
| N#Cc1cc2c(cc1Cl)Sc1nnc(Nc3ccccc3)n1S2(=O)=O | 10.5 µM | – |
| COCn1cnc2c(=O)nc(SC)n(-c3ccccc3)c21 | > 100 µM | – |

Tested on: SK-OV-3 ovarian
Assay: NCI anticancer screen, dose series, 48 h

| Compound | TGI | GI50 [µM] |
| --- | --- | --- |
| COc1ccc(CNc2nc(NC3CCCCC3)nc(NC3CCCCC3)n2)cc1 | > 100 µM | – |
| CN(C)CCCNc1ccc2ncn3c4ccc(O)cc4c(=O)c1c23 | 15.1 µM | – |
| S=C1NCCN1C(=S)Nc1ccccc1 | > 100 µM | – |
| CC1CC(Nc2ccc(Br)cc2)N(C(=O)c2ccc(Br)cc2)O1 (stereo unspecified) | > 10 µM | – |
| OC(C/C=N/N=C/CC(O)(C(F)(F)Cl)C(F)(F)Cl)(C(F)(F)Cl)C(F)(F)Cl | > 10 µM | – |
| COc1cc2c(cc1O)NC(=O)[C@@H]1CCCN1C2=O | > 100 µM | – |
| O=C1C=C(Nc2ccc(S(=O)(=O)Nc3nccs3)cc2)c2ccccc2C1=O | > 100 µM | – |
| C=CC1(CC[C@]2(c3ccc(OC)c(OC)c3)C=[N+]([O-])O[C@H](O[C@@H]3CCCC[C@H]3C(C)(C)c3ccccc3)C2)OCC(C)(C)CO1 | > 65.3 µM | – |
| Oc1c(Br)ccc2cccnc12 | 61.6 µM | – |
| O=c1[nH]c2nc3ccccc3c(=O)n2/c1=C/c1cccs1 | > 100 µM | – |
| CC(=O)SC(C[N+](=O)[O-])c1ccc2c(c1)OCO2 (stereo unspecified) | 18 µM | – |
| Cc1ccc(CSC(N)=Nc2ccccc2)cc1C | 54.7 µM | – |
| C=C1CCCCCCCCC/C=C/1SCCCSC | > 100 µM | – |
| NCCCN(CCCN)CCc1cn(C(=O)c2ccccc2)cn1 | 27.5 µM | – |
| Cc1[nH]n(-c2nc(O)c(-c3ccccc3)c(=O)[nH]2)c(=O)c1CCO | > 100 µM | – |
| CC(NC(=O)Cc1ccccc1)NC(=O)C(C)C(=O)NCc1ccccc1 (stereo unspecified) | > 100 µM | – |
| CCOC(=O)CCC(NC(=O)C(Cc1ccccc1)NC(=O)OCc1ccccc1)C(=O)OCC (stereo not drawn) (Cbz-Phe-Glu(OEt)-OEt; configuration not given here) | 30.5 µM | – |
| O=C1C(Br)=CC2(C=C1Br)CCNC1=C2C(=O)c2ncccc2C1=O | 5.8 µM | – |

| Compound | TGI | GI50 [µM] |
| --- | --- | --- |
| CC(=O)OCC1OC(n2c(C)c(N=Nc3ccc(Cl)cc3)c(C)c(C#N)c2=S)C(OC(C)=O)C(OC(C)=O)C1OC(C)=O (stereo unspecified) | > 100 µM | – |
| CCCCC1Cc2cc(O)ccc2-c2nc3cc(O)ccc3n21 (stereo unspecified) (tested in a mixture with another compound) | 40.4 µM | – |
| CC(NC(=O)c1c(O)[nH]c(=S)[nH]c1=O)c1ccc([N+](=O)[O-])cc1 (stereo unspecified) | > 100 µM | – |
| CC(=O)c1c(N=[N+]=[N-])c2cccc3c2n(c1=O)CCC3 | > 100 µM | – |
| Cn1nnnc1SC(F)(F)c1nc2ccccc2o1 | > 100 µM | – |
| CCCCCCCCCCCC(=O)OC[C@@H](C[As](=O)(O)O)OC(=O)CCCCCCCCCCC | 26.2 µM | – |
| C/C=C\C(CC(=O)NCC(=O)c1c[nH]c2ccccc12)CC(=O)OC (stereo unspecified) | > 100 µM | – |
| CC(=O)c1ccc2c(c1)C(=O)c1sc(C(C)=O)cc1C2=O | 14.3 µM and 21.4 µM | 5.66 |
| O=[N+]([O-])c1c(F)c(F)c2c(c1F)N(CCCCCl)c1ccccc1S2 | 34 µM | – |
| Cc1ccnc2c1C(=O)C1=C(OC(C)(C)CC1O)C2=O (stereo unspecified) | 27.2 µM | – |
| CN1CCc2c(sc3[nH]c(=S)[nH]c(=S)c23)C1 | > 100 µM | – |
| CC(=O)Nc1c(C(=N)C#N)ncn1CCO | > 100 µM | – |
| O=P1(Cc2ccccc2)N(Cc2ccccc2)[C@@H]2CCCC[C@H]2N1Cc1ccccc1 | 28 µM | – |
| CN1CCCOC(c2ccc(Cl)cc2)O1 (stereo unspecified) | > 100 µM | – |
| Cc1c2ccc3ccccc3c2c[n+]2ccccc12 | 83.2 µM | – |
| O=C1/C(=C\c2cccc(Oc3ccccc3)c2)S(=O)(=O)C(c2ccccc2)N1c1cccc(Cl)c1 (stereo unspecified) | > 100 µM | – |
| N#Cc1cc2c(cc1Cl)Sc1nnc(Nc3ccccc3)n1S2(=O)=O | 17.3 µM | – |
| COCn1cnc2c(=O)nc(SC)n(-c3ccccc3)c21 | > 100 µM | – |

Tested on: T-47D breast
Assay: NCI anticancer screen, dose series, 48 h

| Compound | TGI | GI50 [µM] |
| --- | --- | --- |
| COc1ccc(CNc2nc(NC3CCCCC3)nc(NC3CCCCC3)n2)cc1 | 44 µM | – |
| CN(C)CCCNc1ccc2ncn3c4ccc(O)cc4c(=O)c1c23 | 30.5 µM | – |
| S=C1NCCN1C(=S)Nc1ccccc1 | > 100 µM | – |
| CC1CC(Nc2ccc(Br)cc2)N(C(=O)c2ccc(Br)cc2)O1 (stereo unspecified) | > 10 µM | – |
| OC(C/C=N/N=C/CC(O)(C(F)(F)Cl)C(F)(F)Cl)(C(F)(F)Cl)C(F)(F)Cl | > 10 µM | – |
| COc1cc2c(cc1O)NC(=O)[C@@H]1CCCN1C2=O | > 100 µM | – |
| O=C1C=C(Nc2ccc(S(=O)(=O)Nc3nccs3)cc2)c2ccccc2C1=O | > 100 µM | – |
| C=CC1(CC[C@]2(c3ccc(OC)c(OC)c3)C=[N+]([O-])O[C@H](O[C@@H]3CCCC[C@H]3C(C)(C)c3ccccc3)C2)OCC(C)(C)CO1 | > 46.7 µM | – |
| Oc1c(Br)ccc2cccnc12 | 21.1 µM | – |
| O=c1[nH]c2nc3ccccc3c(=O)n2/c1=C/c1cccs1 | > 100 µM | – |
| CC(=O)SC(C[N+](=O)[O-])c1ccc2c(c1)OCO2 (stereo unspecified) | 65.7 µM | – |
| Cc1ccc(CSC(N)=Nc2ccccc2)cc1C | 45 µM | – |
| C=C1CCCCCCCCC/C=C/1SCCCSC | > 100 µM | – |
| NCCCN(CCCN)CCc1cn(C(=O)c2ccccc2)cn1 | 16.8 µM | – |
| Cc1[nH]n(-c2nc(O)c(-c3ccccc3)c(=O)[nH]2)c(=O)c1CCO | > 100 µM | – |
| CC(NC(=O)Cc1ccccc1)NC(=O)C(C)C(=O)NCc1ccccc1 (stereo unspecified) | > 100 µM | – |
| CCOC(=O)CCC(NC(=O)C(Cc1ccccc1)NC(=O)OCc1ccccc1)C(=O)OCC (stereo not drawn) (Cbz-Phe-Glu(OEt)-OEt; configuration not given here) | 32.2 µM | – |
| O=C1C(Br)=CC2(C=C1Br)CCNC1=C2C(=O)c2ncccc2C1=O | 4.48 µM | – |

| Compound | TGI | GI50 [µM] |
| --- | --- | --- |
| CC(=O)OCC1OC(n2c(C)c(N=Nc3ccc(Cl)cc3)c(C)c(C#N)c2=S)C(OC(C)=O)C(OC(C)=O)C1OC(C)=O (stereo unspecified) | > 100 µM | – |
| CCCCC1Cc2cc(O)ccc2-c2nc3cc(O)ccc3n21 (stereo unspecified) (tested in a mixture with another compound) | > 100 µM | – |
| CC(NC(=O)c1c(O)[nH]c(=S)[nH]c1=O)c1ccc([N+](=O)[O-])cc1 (stereo unspecified) | > 100 µM | – |
| CC(=O)c1c(N=[N+]=[N-])c2cccc3c2n(c1=O)CCC3 | 60.4 µM | – |
| Cn1nnnc1SC(F)(F)c1nc2ccccc2o1 | > 100 µM | – |
| CCCCCCCCCCCC(=O)OC[C@@H](C[As](=O)(O)O)OC(=O)CCCCCCCCCCC | 37.7 µM | – |
| C/C=C\C(CC(=O)NCC(=O)c1c[nH]c2ccccc12)CC(=O)OC (stereo unspecified) | > 100 µM | – |
| CC(=O)c1ccc2c(c1)C(=O)c1sc(C(C)=O)cc1C2=O | 3.01 µM and 4.31 µM | 1.73 |
| O=[N+]([O-])c1c(F)c(F)c2c(c1F)N(CCCCCl)c1ccccc1S2 | 27.7 µM | – |
| Cc1ccnc2c1C(=O)C1=C(OC(C)(C)CC1O)C2=O (stereo unspecified) | 19.4 µM | – |
| CN1CCc2c(sc3[nH]c(=S)[nH]c(=S)c23)C1 | > 100 µM | – |
| CCOC(=O)c1c(OCC)[nH]c(=O)c(C(c2cccs2)c2c(O)c(C(=O)OCC)c(OCC)[nH]c2=O)c1O | 17 µM | – |
| CC(=O)Nc1c(C(=N)C#N)ncn1CCO | > 100 µM | – |
| O=P1(Cc2ccccc2)N(Cc2ccccc2)[C@@H]2CCCC[C@H]2N1Cc1ccccc1 | 24.3 µM | – |
| CN1CCCOC(c2ccc(Cl)cc2)O1 (stereo unspecified) | > 100 µM | – |
| Cc1c2ccc3ccccc3c2c[n+]2ccccc12 | 5.09 µM | – |
| O=C1/C(=C\c2cccc(Oc3ccccc3)c2)S(=O)(=O)C(c2ccccc2)N1c1cccc(Cl)c1 (stereo unspecified) | > 100 µM | – |

Reference: PubChem BioAssay (NCI)
